Results as given in patent US12459939B2 (SHANGHAI RINGENE BIOPHARMA CO., LTD., priority 2019, dated 2025).

Assays:
IEC6 = assay: Proliferation inhibition of IEC6 cells; assay type: cell-based; conditions: Rattus norvegicus, IEC-6; IEC6 cell line; read-out: proliferation inhibitory activity IC50
Description: (§1) The proliferation inhibitory activity of some of the embodiment compounds against different cell lines such as LNCAP (+R1881), SKM-1, 22RV1, DU145, MOLM13, MDA-PCA-2b, KASUMI 1, THP-1, KG-1, IEC6, H1299, etc., was tested using similar methods in test embodiment 2 and in the literature.

BRD4-BD1 = molecular target: T1, BRD4-BD1 (Homo sapiens, UniProt O60885); assay: BRD4 AlphaScreen determination (BD1); assay type: binding; conditions: AlphaScreen, protein binding inhibition; read-out: BRD4-BD1 IC50
T1 construct: purchased ReactionBiologyCorp; (RBC)
Description: (§2) (1) 1× Assay buffer was prepared according to the kit requirements of ReactionBiologyCorp. (RBC). (2) Compound concentration gradient preparation: the test compounds were tested at final concentrations starting at 10 μM, with 10 concentrations at 3-fold dilution and single well test was set for each concentration. The positive control compound(+)-JQ-1 was tested at final concentrations starting at 1 μM, with 10 concentrations at 3-fold dilution, and duplicated well test was set for each concentration. The solution was gradient diluted to the corresponding 1000-fold final concentration in a 384-well Source plate, and then 20 nL of the solution was transferred to the 384-well reaction plate with Echo550 to be measured. 20 nL of 100% DMSO was transferred to the Max well, and the highest concentration of the positive compounds were transferred to the Min wells. […] (6) 5 μL of 4× peptide solution was added to each well of the reaction plate, centrifuged at 1000 rpm for 1 min. (7) 10 μL of the assay solution was added, centrifuged at 1000 rpm for 60 seconds, the solution was mixed with gentle shaking, and incubated at room temperature for 60 minutes. (8) Reading with EnVision. (9) The IC50 values of the compounds for protein binding inhibition was obtained by fitting the dose-effect curve with the analytical software GraphPad Prism 5. (See Table 1 for specific values)

[1] = Metabolic stability in mouse liver microsomes; assay type: in vitro ADME; conditions: liver microsomes 0.5 mg/mL, NADPH, 1 μM compound, read-out: Mouse microsomal T1/2
Description: (§3) (1) Metabolic stability test: 150 μL of liver microsomes (final concentration was 0.5 mg/mL) were subjected to metabolic stability incubation, the system containing NADPH (final concentration was 1 mM), 1 μM of the test compound and the positive control midazolam or the negative control atenolol, the reaction was terminated with acetonitrile containing tinidazole at 0 min, 5 min, 10 min, and 30 min, respectively, then the mixture was vortexed for 10 min, and centrifuged at 15000 rmp for 10 min, 50 μL of the supernatant was injected into 96 well. The metabolic stability of the compound was calculated by measuring the relative reduction of the original drug. (See Table 3 for specific values)

[2] = system: most AML cell lines and prostate cancer cell lines; assay: Proliferation inhibition of different cell lines: AML and prostate cancer lines; assay type: cell-based; conditions: read-out: proliferation inhibitory activity IC50
Description: as §1

BRD4-BD2 = molecular target: T2, BRD4-BD2 (Homo sapiens, UniProt O60885); assay: BRD4 AlphaScreen determination (BD2); assay type: binding; conditions: AlphaScreen, protein binding inhibition; read-out: BRD4-BD2 IC50
T2 construct: purchased ReactionBiologyCorp; (RBC)
Description: as §2

[3] = Metabolic stability in rat liver microsomes; assay type: in vitro ADME; conditions: liver microsomes 0.5 mg/mL, NADPH, 1 μM compound, read-out: Rat microsomal T1/2
Description: as §3

MV4-11 cells = assay: Inhibition of proliferation of MV4-11 cells (CellTiter-Glo); assay type: cell-based; conditions: Homo sapiens, 72 h
Description: Specific experimental steps: 1) Day 0: 96 inoculated cells were digested with trypsin and suspended in cell culture medium, the cell density was detected by an automatic cell counter and the cells were diluted with the culture medium to a suitable density, 100 μL of cell suspension was added to the 96-well plate, and the cell-free medium was used as a control well, and the wells were incubated in a 37° C., 5% CO2 cell incubator overnight; 2) Day 1: A total of 8 concentrations of the compound to be tested in the drug-treated cells were tested at 3-fold dilution, 10 μM was the starting assay concentration of the compound to be tested. Specific steps: 200× compound mother liquor was prepared, the compound was diluted with culture medium to a final concentration of […], that is, 3 μL of 200× compound was added to 197 μL of culture medium, 50 μL diluted compound was added to each well of the 96-well plate, and placed at 37° C., 5% CO2 cell culture incubator for 72 h; 3) Day 4: Cell viability detection: 96-well cell plate was first equilibrated to room temperature, 40 μL of CellTiter-Glo® reagent was added to each well, mixed on a shaker for 2 minutes to fully lyse the cells, incubated at room temperature for 10 minutes to stabilize the luminescence signal, and the luminescence value was read by the Envision microplate reader; 4) data processing was performed by GraphPad Prism 5.0 software to analyze the data, and nonlinear S-curve regression was used to fit the data to obtain a dose-effect curve, and from which the ICso value was calculated. Inhibition rate %=(DMSO treated cell wells−compound treated cell wells)/(DMSO treated cell wells−cell free medium wells)×100. The ICso value was obtained by the four-parameter regression method using the random software in the microplate reader. (See Table 2 for specific values)

H1299 = assay: Proliferation inhibition of H1299 cells; assay type: cell-based; conditions: Homo sapiens, NCI-H1299; H1299 cell line; read-out: proliferation inhibitory activity IC50
Description: as §1

[4] = system: LNCAP, SKM-1, MOLM13, KASUMI 1, THP-1, KG-1; assay: Proliferation inhibition of different cell lines: most sensitive lines; assay type: cell-based; conditions: some cell lines such as LNCAP, read-out: proliferation inhibitory activity IC50
Description: as §1

[5] = Metabolic stability in dog liver microsomes; assay type: in vitro ADME; conditions: liver microsomes 0.5 mg/mL, NADPH, 1 μM compound, read-out: Dog microsomal T1/2
Description: as §3

[6] = system: MV 4-11 transplanted tumor; assay: Growth inhibition of MV 4-11 transplanted tumor in nude mice; assay type: in vivo; conditions: dose of 15 mpk, oral, daily
Description: The tumor tissue in vigorous growth stage was cut into about 1.5 mm^3 and inoculated subcutaneously in the right armpit of nude mice under sterile conditions. The diameter of subcutaneous transplanted tumor in nude mice was measured with vernier caliper, and the animals were randomly divided into groups when the average tumor volume was about 130 mm^3. […] During the whole experiment, the diameter of the transplanted tumor was measured twice a week, and the weight of mice was weighed at the same time. The calculation formula of tumor volume (TV) was: TV=½×a×b^2, wherein a and b represent the length and width respectively. The relative tumor volume (RTV) was calculated according to the measurement results, and the calculation formula was: RTV=VT/v0. Wherein VO is the tumor volume measured during the administration in cage (i.e., d0), and Vt is the tumor volume at each measurement.

[7] = In vivo pharmacokinetics in mice; conditions: male, Balb c, mouse, plasma, po, 5 mg/kg
Description: Six male SPF-grade SD rats or Balb c mice (Shanghai B&K laboratory animals) were divided into two groups and the test compounds were configured into suitable solutions or suspensions; one group was administered intravenously and one group was administered orally. Blood was collected by jugular vein puncture, and each sample was collected about 0.2 mL/time point, heparin sodium was used for anticoagulation, the blood collection time points were as follows: before administration and 5, 15 and 30 minutes, 1, 2, 4, 6, 8 and 24 h after administration, the blood sample was collected and placed on ice, centrifuged to separate the plasma (centrifugation conditions: 8000 rpm, 6 minutes, 2-8° C.), and the collected plasma was stored at −80° C. before analysis. The plasma samples were analyzed by LC-MS/MS.
According to the blood drug concentration data of the drug, the pharmacokinetic calculation software WinNonlin5.2 non-compartmental model was used to calculate the pharmacokinetic parameters AUC0-t, AUC0-∞, MRT0-∞, Cmax, Tmax, T1/2 and Vd and other parameters and their mean and standard deviation. In addition, the bioavailability (F) was calculated by the following formula.
For samples with a concentration lower than the lower limit of quantification, when calculating the pharmacokinetic parameters, the samples sampled before reaching Cmax should be calculated as zero, and samples sampled after reaching Cmax should be calculated as unquantifiable (BLQ).

Row | IC50 (BRD4-BD1) | IC50 [2] | IC50 (BRD4-BD2) | IC50 (H1299) | IC50 [4] | SMILES | IC50 (IEC6) | half-life at 1 μM [1] | half-life at 1 μM [3] | IC50 (MV4-11 cells) | half-life at 1 μM [5] | inhibitory rate (growth of transplanted tumor) [6] | bioavailability [7]
1 | 109 nM | < 1000 nM | 0.57 nM | > 1000 nM | < 100 nM | Cc1cc(F)cc(C)c1Oc1ccc(C(C)(C)O)cc1-c1cn(C)c(=O)c2cc(C(=O)NCC(F)F)[nH]c12 [Embodiment 11, N-(2,2-difluoroethyl)-7-(2-(4-fluoro-2,6-dimethylphenoxy)-5-(2-hydroxyprop-2-yl)phenyl)-5-methyl-4-oxo-4,5-dihydro-1H-pyrrolo[3,2-c] pyridine-2-amide] | > 1000 nM | 39 min | 77 min | 20.4 nM | 403 min |  | 
2 |  |  |  |  |  | CCNC(=O)c1cc2c(=O)n(C)cc(-c3cc(C(C)(C)O)ccc3Oc3c(C)cc(F)cc3C)c2[nH]1 |  | 170 min | 168 min |  | 195 min |  | 
3 |  |  |  |  |  | CCNC(=O)c1cc2c(-c3cc(C(C)(C)O)ccc3Oc3c(C)cc(F)cc3C)cn(C)c(=O)c2[nH]1 [compound 1, N-ethyl-4-(2-(4-fluoro-2,6-dimethylphenoxy)-5-(2-hydroxyprop-2-yl)phenyl)-6-methyl-7-oxo-6,7-dihydro-1H-pyrrolo[2,3-c]pyridine-2-amide, reference compound] |  | 19 min | 62 min | 32 nM | 68 min | about 60% | 25%
